Among the test systems are UO-31 renal; M14 melanoma; SK-MEL-5 melanoma; CCRF-CEM leukemia; ACHN renal; KM12 colon; IGROV1 ovarian; TK-10 renal; NCI-H522 lung; COLO 205 colon.
Common to all, as to assay: NCI-60 cell line screen, 48 h

This passage reports TGI results from PubChem BioAssay (NCI).

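Tested at 5 concentrations; 48 h exposure; 96-well plates; endpoints linearly interpolated, else capped at highest concentration. TGI marks complete inhibition of growth.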

Regarding `COC(=O)C1=C(C(=O)OC)SC(=C2SCSC3=C2SC(C(=O)OC)=C(C(=O)OC)C32SC3=C(CCCC3)S2)S1`, the TGI in the assay on UO-31 renal, in the assay with M14 melanoma, in the assay with SK-MEL-5 melanoma, with CCRF-CEM leukemia, in the assay with ACHN renal and with KM12 colon was greater than 100 µM throughout. The TGI with IGROV1 ovarian, in the assay with TK-10 renal, in the assay with NCI-H522 lung and in the assay on COLO 205 colon was greater than 100 µM in each case.

For the compound `CC(=O)/C=C/C1=C(C)CCCC1(C)CC(C)C` (centres undefined), the TGI with UO-31 renal was greater than 100 µM; in the assay on M14 melanoma, greater than 100 µM; with SK-MEL-5 melanoma, 49.1 µM; with CCRF-CEM leukemia, 36.6 µM; in the assay with ACHN renal it was 47.9 µM; with KM12 colon, greater than 100 µM. The TGI in the assay on IGROV1 ovarian is greater than 100 µM; in the assay with TK-10 renal it was greater than 100 µM; with NCI-H522 lung, 57.8 µM; in the assay on COLO 205 colon it was greater than 100 µM.

Turning to `CC1CN(C)c2ccccc2N=C1NN` (centres undefined), the TGI in the assay on UO-31 renal, with M14 melanoma, with SK-MEL-5 melanoma, with CCRF-CEM leukemia, in the assay with ACHN renal and with KM12 colon was greater than 100 µM in each case. Besides, the TGI in the assay with IGROV1 ovarian, in the assay on TK-10 renal, with NCI-H522 lung and with COLO 205 colon was greater than 100 µM throughout.

On to `NC1(c2cc3ccccc3s2)CCCC1`, for which the TGI in the assay on UO-31 renal is greater than 100 µM; in the assay with M14 melanoma, 56.2 µM; in the assay with SK-MEL-5 melanoma, 68.2 µM; in the assay on CCRF-CEM leukemia, 42.3 µM; in the assay with ACHN renal, greater than 100 µM; in the assay on KM12 colon it was greater than 100 µM. For the same compound, the TGI is greater than 100 µM in the assay with IGROV1 ovarian, 85.7 µM in the assay with TK-10 renal, greater than 100 µM in the assay with NCI-H522 lung and 43.1 µM in the assay with COLO 205 colon.

As to `CCN(CC)C(=S)N/N=C/c1cc([N+](=O)[O-])ccc1O`, the TGI is greater than 100 µM in the assay on UO-31 renal; 29.1 µM in the assay on M14 melanoma; 8.94 µM in the assay with SK-MEL-5 melanoma; 8.06 µM in the assay with CCRF-CEM leukemia; 25.1 µM with ACHN renal; greater than 100 µM with KM12 colon. For the same compound, the TGI in the assay on IGROV1 ovarian was found to be 16.7 µM; with TK-10 renal, 37.1 µM; in the assay with NCI-H522 lung it was 17.6 µM; with COLO 205 colon it was 18.1 µM.

On to `CCC(=O)NC(Nc1cc(C)on1)(C(F)(F)F)C(F)(F)F`, for which the TGI in the assay with UO-31 renal, in the assay on M14 melanoma, in the assay on SK-MEL-5 melanoma, in the assay with CCRF-CEM leukemia, with ACHN renal and in the assay with KM12 colon was greater than 100 µM in each case. Moreover, the TGI in the assay on IGROV1 ovarian, with TK-10 renal and with NCI-H522 lung was greater than 100 µM throughout.

As to `CC(=O)N1C(C(=O)NC2CCCCC2)CSC1c1ccccc1` (centres undefined), the TGI in the assay on UO-31 renal, with M14 melanoma, in the assay with SK-MEL-5 melanoma, in the assay with CCRF-CEM leukemia, with ACHN renal and in the assay on KM12 colon was greater than 100 µM throughout. Also, the TGI in the assay on IGROV1 ovarian, in the assay on TK-10 renal and in the assay on NCI-H522 lung was greater than 100 µM each time.

For the compound `COc1ccc(C(=C2C=CC=C2)c2ccc(OC)cc2)cc1`, the TGI with UO-31 renal is greater than 100 µM; in the assay with M14 melanoma, greater than 100 µM; with SK-MEL-5 melanoma it was 95.3 µM; with CCRF-CEM leukemia it was 53 µM; with ACHN renal it was greater than 100 µM; in the assay on KM12 colon, greater than 100 µM. The TGI with IGROV1 ovarian is greater than 100 µM; in the assay on TK-10 renal, greater than 100 µM; with NCI-H522 lung it was 40.4 µM; in the assay on COLO 205 colon, 43.5 µM.

In the case of `Cc1ccccc1C(=N)c1ccccc1Cc1cccc2ccccc12`, the TGI was greater than 100 µM in the assay with UO-31 renal; greater than 100 µM in the assay with M14 melanoma; 34.5 µM in the assay with SK-MEL-5 melanoma; 42.7 µM in the assay on CCRF-CEM leukemia; greater than 100 µM in the assay with ACHN renal; 41.9 µM with KM12 colon. Moreover, the TGI in the assay with IGROV1 ovarian is greater than 100 µM; in the assay with TK-10 renal, greater than 100 µM; in the assay with NCI-H522 lung it was 34.6 µM; in the assay with COLO 205 colon, 76.9 µM.

On to `O=C(/C=C/c1ccc2c(c1)OCO2)c1ccc(O)cc1`, for which the TGI with UO-31 renal was determined as 26.2 µM; in the assay with M14 melanoma, 32.2 µM; with SK-MEL-5 melanoma, 29.1 µM; in the assay with CCRF-CEM leukemia it was 35.3 µM; with ACHN renal, 59.4 µM; with IGROV1 ovarian it was 30.2 µM. The figures for the TGI in the assay with TK-10 renal, with NCI-H522 lung and with COLO 205 colon were 33.1 µM, 6.72 µM and 31.3 µM, respectively.

Turning to `C(=C(c1ccc(OC2CCCCO2)cc1)c1ccc(OC2CCCCO2)cc1)c1ccccc1` (centres undefined), the TGI in the assay with UO-31 renal stood at 2.26 µM; in the assay with M14 melanoma, 2 µM; in the assay on SK-MEL-5 melanoma it was 1.78 µM; in the assay on CCRF-CEM leukemia it was 6.66 µM; in the assay with ACHN renal it was 2.24 µM; in the assay on KM12 colon it was 0.677 µM. Also, the TGI in the assay on IGROV1 ovarian turned out to be 1.71 µM; in the assay on TK-10 renal, 2.35 µM; with NCI-H522 lung, 2.4 µM; in the assay on COLO 205 colon it was 1.6 µM.

For the compound `CC1=Nc2ccccc2OC(C)=C1N=Nc1ccc2nc(C)[nH]c2c1`, the TGI with M14 melanoma, in the assay with CCRF-CEM leukemia, in the assay on ACHN renal, with KM12 colon, in the assay with IGROV1 ovarian and in the assay with TK-10 renal was greater than 100 µM throughout. The TGI with NCI-H522 lung and in the assay with COLO 205 colon was greater than 100 µM throughout.

As to `[N-]=[N+]=NC(c1ccccc1)(c1ccccc1)c1ccccc1`, the TGI in the assay on UO-31 renal was found to be 30 µM; in the assay on M14 melanoma it was 35.5 µM; with SK-MEL-5 melanoma, 26.8 µM; with CCRF-CEM leukemia, 55.4 µM; with ACHN renal it was 29.1 µM; in the assay on KM12 colon, 46.8 µM. Also, the TGI in the assay with IGROV1 ovarian worked out at 63.7 µM; with TK-10 renal, 32.4 µM; in the assay on NCI-H522 lung, 33.5 µM; in the assay with COLO 205 colon, 27.8 µM.

In the case of `O=C(C1OC1c1ccc(Br)cc1O)C12CC3CC(CC(C3)C1)C2` (centres undefined), the TGI in the assay on UO-31 renal was 31.3 µM; in the assay on M14 melanoma, 38.6 µM; with SK-MEL-5 melanoma, 56.8 µM; with CCRF-CEM leukemia, greater than 100 µM; with ACHN renal, greater than 100 µM; in the assay with KM12 colon, 41.4 µM. For the same compound, the TGI is greater than 100 µM with IGROV1 ovarian, greater than 100 µM with TK-10 renal and 45.2 µM in the assay with NCI-H522 lung.
